Columns and labels:
ROCK2 = ROCK2 (Homo sapiens, UniProt O75116); assay: ROCK2 kinase IC50, HTRF KinEASE-STK S2 kit; assay type: biochemical; settings: 2 hours at room temperature
Description: (§1) The kinase IC50 was determined by a commercialized CISBIO kinase detection kit, HTRF KinEASE-STK S2 kit (62ST2PEC). ROCK2 (01-119) employed in the reaction was purchased from Carna Biosciences.
(§2) Before the assay, the following working solutions as needed were formulated with corresponding reagents according to the instruction of the kinase detection kit: 1×kinase buffer, 5×STK-S2 substrate working solution (1.5 μM) and 5×ATP working solution (1.5 μM), 5×ROCK2 kinase working solution, 4×Streptavidin-XL665 working solution, and 4×STK-Ab-Cryptate 2 detection solution. Then the assay was performed according to the following procedure.
(§3) A solution of a compound at a concentration of 10000 nM was prepared with the 1×kinase buffer containing 2.5% DMSO. Gradient dilution of the solution of the compound was performed with the kinase buffer containing DMSO, so as to obtain solutions of a test compound at 9 different concentrations. In addition to wells of test compounds, a positive well (containing all the reagents except the compound) and a negative well (containing all the reagents except the test compound and kinase) were set. Except for the control wells (positive and negative wells), a solution of a test compound (4 μL) was added to each of the reaction wells, and a solution of 2.5% DMSO was added to the control wells. Then the substrate (2 μM, i.e., 2 μL 5×STK-S2 substrate working solution) was added to each of the reaction wells. The 5×ROCK2 kinase working solution (2 μL, containing 1.4 ng ROCK2 kinase) was added to each of the reaction wells except for the negative well, the volume of which was made up with the 1×kinase buffer (2 μL). The 5×ATP working solution (2 μL) was added to each of the reaction wells, and the mixtures were incubated at room temperature for 2 hours. After the kinase reaction was complete, the 4×Streptavidin-XL665 working solution was added to each of the reaction wells, the solutions were mixed, followed by immediate addition of the 4×STK-Ab-Cryptate 2 detection solution (5 μL), and the mixtures were incubated at room temperature for 1 hour. The fluorescence signal was read on ENVISION (Perkinelmer) (excitation wavelength: 320 inn, and emission wavelength: 665 nm and 615 nm). The inhibitory rate in each well was calculated based on the fluorescence intensity value: ER (Emission Ratio)_(fluorescence intensity at 665 nm/fluorescence intensity at 615 nm); inhibitory rate=(ERpositive−ERtest compound)/(ERpositive−ERnegative)*100%. Curves were plotted and fitted to obtain the median inhibitory concentration (IC50) of each teat compound with the PRISM 5.0 software. According to a biological test method similar to the above, the IC50 values of the compounds on ROCK1 were also tested.

ROCK1 = ROCK1 (Homo sapiens (Human), UniProt Q13464); assay: ROCK1 kinase IC50, biological test method similar to ROCK2 assay; assay type: biochemical
ROCK1, sequence (Q13464 whole entry, species assumed): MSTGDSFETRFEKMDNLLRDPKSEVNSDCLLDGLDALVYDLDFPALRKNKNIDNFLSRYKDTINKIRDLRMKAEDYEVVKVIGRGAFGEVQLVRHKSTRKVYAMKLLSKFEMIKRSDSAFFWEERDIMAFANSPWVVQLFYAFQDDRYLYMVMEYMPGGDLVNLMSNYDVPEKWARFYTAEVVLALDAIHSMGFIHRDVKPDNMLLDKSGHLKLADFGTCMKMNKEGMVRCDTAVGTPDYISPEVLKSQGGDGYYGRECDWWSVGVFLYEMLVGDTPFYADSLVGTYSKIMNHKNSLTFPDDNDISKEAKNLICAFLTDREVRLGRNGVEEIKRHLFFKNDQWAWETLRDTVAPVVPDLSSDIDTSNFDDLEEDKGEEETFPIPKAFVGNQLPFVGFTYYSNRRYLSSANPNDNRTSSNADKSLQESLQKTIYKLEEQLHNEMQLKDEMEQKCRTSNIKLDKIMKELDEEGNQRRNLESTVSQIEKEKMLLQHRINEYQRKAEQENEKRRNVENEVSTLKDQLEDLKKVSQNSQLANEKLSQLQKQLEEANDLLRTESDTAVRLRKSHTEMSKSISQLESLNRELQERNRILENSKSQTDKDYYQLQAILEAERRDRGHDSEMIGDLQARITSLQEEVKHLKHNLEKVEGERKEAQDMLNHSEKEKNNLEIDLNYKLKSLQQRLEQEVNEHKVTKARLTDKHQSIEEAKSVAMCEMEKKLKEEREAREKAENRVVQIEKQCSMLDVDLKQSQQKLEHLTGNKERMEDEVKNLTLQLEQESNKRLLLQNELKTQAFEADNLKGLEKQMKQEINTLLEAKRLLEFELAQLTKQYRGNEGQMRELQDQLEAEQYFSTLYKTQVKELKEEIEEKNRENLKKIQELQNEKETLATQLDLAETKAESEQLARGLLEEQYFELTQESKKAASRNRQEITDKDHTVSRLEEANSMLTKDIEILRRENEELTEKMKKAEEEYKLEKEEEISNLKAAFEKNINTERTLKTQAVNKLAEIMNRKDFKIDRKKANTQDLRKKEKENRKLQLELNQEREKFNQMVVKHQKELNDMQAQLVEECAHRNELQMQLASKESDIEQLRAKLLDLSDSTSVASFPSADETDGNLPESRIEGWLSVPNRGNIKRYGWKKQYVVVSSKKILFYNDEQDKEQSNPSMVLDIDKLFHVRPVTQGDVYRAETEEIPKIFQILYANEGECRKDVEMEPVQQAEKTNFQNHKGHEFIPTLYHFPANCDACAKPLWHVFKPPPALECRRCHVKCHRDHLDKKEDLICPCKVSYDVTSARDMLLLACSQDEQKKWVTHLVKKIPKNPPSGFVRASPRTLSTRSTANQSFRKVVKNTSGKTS
Description: as §1, §2, §3

ROCK2, sequence (O75116 whole entry, looked up): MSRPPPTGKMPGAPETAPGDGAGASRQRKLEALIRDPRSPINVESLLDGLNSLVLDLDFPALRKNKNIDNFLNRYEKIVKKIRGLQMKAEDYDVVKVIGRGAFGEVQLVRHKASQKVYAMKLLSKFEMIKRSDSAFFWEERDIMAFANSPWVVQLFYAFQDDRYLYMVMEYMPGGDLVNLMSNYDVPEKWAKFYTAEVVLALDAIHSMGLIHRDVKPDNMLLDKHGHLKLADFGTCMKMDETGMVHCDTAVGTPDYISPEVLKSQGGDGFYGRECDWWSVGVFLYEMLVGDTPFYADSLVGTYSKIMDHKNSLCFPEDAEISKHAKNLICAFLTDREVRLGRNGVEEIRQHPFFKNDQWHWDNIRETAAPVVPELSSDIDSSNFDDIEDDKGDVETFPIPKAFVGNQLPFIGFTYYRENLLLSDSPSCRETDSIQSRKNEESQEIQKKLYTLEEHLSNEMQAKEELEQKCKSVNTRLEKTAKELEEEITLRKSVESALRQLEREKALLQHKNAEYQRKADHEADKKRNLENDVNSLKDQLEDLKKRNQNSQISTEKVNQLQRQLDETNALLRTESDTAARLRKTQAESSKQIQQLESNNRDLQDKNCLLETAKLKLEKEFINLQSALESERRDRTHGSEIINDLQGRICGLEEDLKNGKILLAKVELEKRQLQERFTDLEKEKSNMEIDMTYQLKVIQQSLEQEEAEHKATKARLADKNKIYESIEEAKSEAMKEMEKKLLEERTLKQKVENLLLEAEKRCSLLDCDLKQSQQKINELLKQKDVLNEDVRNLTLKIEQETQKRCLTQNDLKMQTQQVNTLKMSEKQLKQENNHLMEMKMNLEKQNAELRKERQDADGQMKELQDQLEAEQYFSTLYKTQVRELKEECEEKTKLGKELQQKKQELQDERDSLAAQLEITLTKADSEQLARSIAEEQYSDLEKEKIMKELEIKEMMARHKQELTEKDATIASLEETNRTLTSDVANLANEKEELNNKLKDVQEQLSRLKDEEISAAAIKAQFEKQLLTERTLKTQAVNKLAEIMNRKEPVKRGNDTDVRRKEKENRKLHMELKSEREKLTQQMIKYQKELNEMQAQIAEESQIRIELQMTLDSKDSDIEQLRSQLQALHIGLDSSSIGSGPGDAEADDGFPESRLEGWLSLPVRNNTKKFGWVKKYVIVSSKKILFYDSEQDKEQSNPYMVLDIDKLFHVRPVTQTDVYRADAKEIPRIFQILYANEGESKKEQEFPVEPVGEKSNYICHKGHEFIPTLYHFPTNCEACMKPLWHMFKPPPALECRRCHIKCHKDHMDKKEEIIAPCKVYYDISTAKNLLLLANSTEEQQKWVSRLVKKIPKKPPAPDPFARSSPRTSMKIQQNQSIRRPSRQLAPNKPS

| Structure (SMILES) | IC50 (ROCK2) [nM] | IC50 (ROCK1) [nM] |
| --- | --- | --- |
| O=C(C1CC(F)(F)C1)N1Cc2ccc(-c3nccc(Nc4ccc5c(=O)[nH]ccc5c4)n3)cc2C1 [C54, 6-((2-(2-(3,3-difluoroocyclobutane-1-carbonyl)isoindolin-5-yl)pyrimidin-4-yl)amino)isoquinolin-1(2H)-one] | 17 | > 10000 |
| O=C(CCC(F)(F)F)N1Cc2ccc(-c3ncc(F)c(Nc4ccc5c(=O)[nH]ccc5c4)n3)cc2C1 [C63, 6-((5-fluoro-2-(2-(4,4,4-trifluoro-butanoyl)isoindolin-5-yl)pyrimidin-4-yl)amino) isoquinolin-1(2H)-one] | 24 | > 10000 |
| CC(OC(=O)N1CCc2sc(-c3ncc(F)c(Nc4ccc5c(=O)[nH]ccc5c4)n3)cc2C1)C(F)(F)F (centres unmarked) [C46, 1,1,1-trifluoropropan-2-yl 2-(5-fluoro-4-((1-oxo-1,2-dihydroisoquinolin-6-yl)amino)pyrimidin-2-yl)-6,7-dihydrothieno[3,2-c]pyridine-5(4H)-carboxylate] | 21 | > 10000 |
| CC(OC(=O)N1CCc2sc(-c3ncc(F)c(Nc4ccc5c(=O)[nH]ncc5c4)n3)cc2C1)C(F)(F)F (centres unmarked) [C60, 1,1,1-trifluoropropan-2-yl 2-(5-fluoro-4-((1-oxo-1,2-dihydrophthalazin-6-yl)amino)pyrimidin-2-yl)-6,7-dihydrothieno[3,2-c]pyridine-5(4H)-carboxylate] | 13 | > 10000 |
| O=C(c1ccc2c(c1)CN(c1nccc(Nc3ccc4c(=O)[nH]ccc4c3)n1)C2)N1CC(F)(F)C1 [C1, 6-((2-(5-(3,3-difluoroazetidine-1-carbonyl)isoindolin-2-yl)pyrimidin-4-yl)amino)isoquinolin-1(2H)-one] | 129 | > 10000 |
| COCn1c(C(=O)N2CC(F)(F)C2)cc2ccc(-c3nccc(Nc4ccc5c(=O)[nH]ccc5c4)n3)cc21 [C21, 6-((2-(2-(3,3-difluoro-azetidine-1-carbonyl)-1-(methoxy-methyl)-1H-indol-6-yl)pyrimidin-4-yl)amino) isoquinolin-1(2H)-one] | 108 | > 10000 |
| CC(OC(=O)N1CCc2cc(-c3ncc(F)c(Nc4ccc5c(=O)[nH]ccc5c4)n3)ccc21)C(F)(F)F (centres unmarked) [C73, 1,1,1-trifluoro-propan-2-yl 5-(5-fluoro-4-((1-oxo-1,2-dihydro-isoquinolin-6-yl)amino)pyrimidin-2-yl) indoline-1-carboxylate] | 78 | > 10000 |
| CC(CC(=O)N1Cc2ccc(-c3ncc(F)c(Nc4ccc5c(=O)[nH]ccc5c4)n3)cc2C1)C(F)(F)F (centres unmarked) [C37, 6-((5-fluoro-2-(2-(4,4,4-trifluoro-3-methylbutanoyl)isoindolin-5-yl)pyrimidin-4-yl)amino)isoquinolin-1(2H)-one] | 117 | > 10000 |
| O=C(N1Cc2ccc(-c3ncc(F)c(Nc4ccc5c(=O)[nH]ccc5c4)n3)cc2C1)C(F)(F)F [C62] | 139 | > 10000 |
| CC(C)(C)CC(=O)N1CCc2sc(-c3ncc(F)c(Nc4ccc5c(c4)CCNC5=O)n3)cc2C1 [C53, 6-((2-(5-(3,3-dimethylbutanoyl)-4,5,6,7-tetrahydrothieno [3,2-c]pyridin-2-yl)-5-fluoropyrimidin-4-yl)amino)-3,4-dihydroisoquinolin-1(2H)-one] | 135 | > 10000 |
| O=C(OC1CC(F)(F)C1)N1CCc2cc(-c3nccc(Nc4ccc5c(=O)[nH]ccc5c4)n3)ccc2C1 [C25, 3,3-difluoro-cyclobutyl 6-(4-((1-oxo-1,2-dihydro-isoquinolin-6-yl)amino)pyrimidin-2-yl)-3,4-dihydro-isoquinolin-2(1H)-carboxylate] | 45 | > 10000 |
| CC(OC(=O)N1CCc2cc(-c3nccc(Nc4ccc5c(c4)CCNC5=O)n3)ccc2C1)C(F)(F)F (centres unmarked) [C40, 1,1,1-trifluoro-propan-2-yl 6-(4-((1-oxo-1,2,3,4-tetrahydro-isoquinolin-6-yl)amino)pyrimidin-2-yl)-3,4-dihydro-isoquinolin-2(1H)-carboxylate] | 270 | > 10000 |
| O=C(OC1CCOC1)N1Cc2ccc(-c3ncc(F)c(Nc4ccc5c(=O)[nH]ccc5c4)n3)cc2C1 (centres unmarked) [C19, tetra-hydrofuran-3-yl 5-(5-fluoro-4-((1-oxo-1,2-dihydro-isoquinolin-6-yl)amino)pyrimidin-2-yl) isoindoline-2-carboxylate] | 25 | > 10000 |
| CC(C)(C)OC(=O)N1Cc2ccc(-c3ncc(F)c(Nc4ccc5c(=O)[nH]ccc5c4)n3)cc2C1 [C11, tert-butyl 5-(5-fluoro-4-((1-oxo-1,2-dihydro-isoquinolin-6-yl)amino)pyrimiclin-2-yl) isoindoline-2-carboxylate] | 34 | > 10000 |
| O=C(CCC(F)(F)F)N1CCc2sc(-c3ncc(F)c(Nc4ccc5c(=O)[nH]ccc5c4)n3)cc2C1 [C68, 6-((5-fluoro-2-(5-(4,4,4-trifluorobutanoyl)-4,5,6,7-tetrahydrothieno[3,2-c]pyridin-2-yl)pyrimidin-4-yl)amino)isoquinolin-1(2H)-one] | 9 | > 10000 |
| O=C(C1CCC(F)(F)CC1)N1Cc2ccc(-c3ncc(F)c(Nc4ccc5c(=O)[nH]ccc5c4)n3)cc2C1 [C13, 6-((2-(2-(4,4-difluorocyclohexane-1-carbonyl)isoindolin-5-yl)-5-fluoropyrimidin-4-yl)amino)isoquinolin-1(2H)-one] | 38 | > 10000 |
| CC(C)(C)CC(=O)N1CCc2sc(-c3nccc(Nc4ccc5c(=O)[nH]ccc5c4)n3)cc2C1 [C57, 6-((2-(5-(3,3-dimethylbutanoyl)-4,5,6,7-tetrahydrothieno[3,2-c]pyridin-2-yl)pyrimidin-4-yl)amino)isoquinolin-1(2H)-one] | 16 | > 10000 |
| O=C(OC1CC(F)(F)C1)N1Cc2ccc(-c3ncc(F)c(Nc4ccc5c(=O)[nH]ccc5c4)n3)cc2C1 [C10, 3,3-difluorocyclobutyl 5-(5-fluoro-4-((1-oxo-1,2-dihydroisoquinolin-6-yl)amino)pyrimidin-2-yl)isoindoline-2-carboxylate] | 11 | > 10000 |
| CC(CC(=O)N1Cc2ccc(-c3ncc(F)c(Nc4ccc5c(c4)CCNC5=O)n3)cc2C1)C(F)(F)F (centres unmarked) [C67, 6-((5-fluoro-2-(2-(4,4,4-trifluoro-3-methyl-butanoyl)isoindolin-5-yl)pyrimidin-4-yl)amino)-3,4-dihydro-isoquinolin-1(2H)-one] | 101 | > 10000 |
| Cn1c(C(=O)N2CC(F)(F)C2)cc2ccc(-c3nccc(Nc4ccc5c(N)nccc5c4)n3)cc21 [C38, (6-(4-((1-aminoisoquinolin-6-yl)amino)pyrimidin-2-yl)-1-methyl-1H-indol-2-yl)(3,3-difluoroazetidin-1-yl)methanone] | 264 | > 10000 |
| O=C(C1CC(F)(F)C1)N1Cc2ccc(-c3ncc(F)c(Nc4ccc5c(=O)[nH]cnc5c4)n3)cc2C1 [C6, 7-((2-(2-(3,3-difluoroo-cyclobutane-1-carbonyl)isoindolin-5-yl)-5-fluoro-pyrimidin-4-yl)amino) quinazolin-4(3H)-one] | 76 | > 10000 |
| O=C(OC1CC(F)(F)C1)N1CCc2cc(-c3ncc(F)c(Nc4ccc5c(=O)[nH]ccc5c4)n3)ccc21 [C16] | 19 | > 10000 |
| CC(CC(=O)N1CCc2cc(-c3ncc(F)c(Nc4ccc5c(=O)[nH]ccc5c4)n3)ccc21)C(F)(F)F (centres unmarked) [C71, 6-((5-fluoro-2-(1-(4,4,4-trifluoro-3-methyl-butanoyl)indolin-5-yl)pyrimidin-4-yl)amino) isoquinolin-1(2H)-one] | 25 | > 10000 |
| O=C(N1CCc2cc(-c3nccc(Nc4ccc5c(=O)[nH]ccc5c4)n3)ccc2C1)N1CC(F)(F)C1 [C44, 6-((2-(2-(3. 3-difluoro-azetidine-1-carbonyl)-1,2,3,4-tetrahydro-isoquinolin-6-yl)pyrimidin-4-yl)amino) isoquinolin-1(2H)-one] | 57 | > 10000 |
| O=C(CCC(F)(F)F)N1CCc2cc(-c3ncc(F)c(Nc4ccc5c(=O)[nH]ccc5c4)n3)ccc21 [C70, 6-((5-fluoro-2-(1-(4,4,4-trifluoro-butanoyl)indolin-5-yl)pyrimidin-4-yl)amino) isoquinolin-1(2H)-one] | 15 | > 10000 |

Reference: patent US12398118B2, “Rho-associated protein kinase inhibitor, pharmaceutical composition comprising same, and use thereof” (BEIJING TIDE PHARMACEUTICAL CO., LTD., priority 2018, dated 2025)
